The values that follow are results of earlier work, collected in patent US8778397B2, “Stabilized tolterodine tartrate formulations” (Mylan Inc., priority 2007, dated 2014).

For the molecule `Cc1ccc(O)c([C@H](CCN(C(C)C)C(C)C)c2ccccc2)c1` [Tolterodine], the solubility in water is 12 g/1000 mL.
